Measured values as given in ChEMBL document CHEMBL1201862, “PubChem BioAssay data set” (2004).
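Five concentrations, 48 hours, 96-well plates. Here, GI50 denotes the concentration required for 50% inhibition of growth.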 The source made the active and inactive calls. Rule as the data show it: active = GI50 up to about 1.1 µM and inactive = higher.

What was measured:
Assay in all cases: NCI-60 cell line screen, 48 h
SK-MEL-5 = tested on: SK-MEL-5
MOLT-4 = tested on: MOLT-4
UO-31 = tested on: UO-31
SK-OV-3 = tested on: SK-OV-3
OVCAR-8 = tested on: OVCAR-8
Hs-578T = tested on: Hs-578T
TK-10 = tested on: TK-10
ACHN = tested on: ACHN
MDA-N = tested on: MDA-N
BT-549 = tested on: BT-549
HCT-116 = tested on: HCT-116
786-0 = tested on: 786-0
SF-268 = tested on: SF-268
Malme-3M = tested on: Malme-3M
U-251 = tested on: U-251
SNB-19 = tested on: SNB-19
SN12C = tested on: SN12C
KM12 = tested on: KM12
IGROV-1 = tested on: IGROV-1
K562 = tested on: K562
UACC-62 = tested on: UACC-62
SK-MEL-2 = tested on: SK-MEL-2
COLO 205 = tested on: COLO 205
HT-29 = tested on: HT-29
NCI-H23 = tested on: NCI-H23
SK-MEL-28 = tested on: SK-MEL-28
OVCAR-4 = tested on: OVCAR-4
M14 = tested on: M14
PC-3 = tested on: PC-3
HCT-15 = tested on: HCT-15
LOX IMVI = tested on: LOX IMVI
SF-539 = tested on: SF-539
MDA-MB-435 = tested on: MDA-MB-435
NCI-H522 = tested on: NCI-H522
NCI-H460 = tested on: NCI-H460
DU-145 = tested on: DU-145
A498 = tested on: A498
HOP-92 = tested on: HOP-92
SR = tested on: SR
EKVX = tested on: EKVX
HCC 2998 = tested on: HCC 2998
MDA-MB-231 = tested on: MDA-MB-231
SNB-75 = tested on: SNB-75
NCI/ADR-RES = tested on: NCI/ADR-RES
T47D = tested on: T47D
UACC-257 = tested on: UACC-257
HOP-62 = tested on: HOP-62
A549 = tested on: A549
MCF7 = tested on: MCF7
SW-620 = tested on: SW-620
OVCAR-3 = tested on: OVCAR-3
HL-60 = tested on: HL-60
OVCAR-5 = tested on: OVCAR-5
SF-295 = tested on: SF-295
CCRF-CEM = tested on: CCRF-CEM
CAKI-1 = tested on: CAKI-1
RXF 393 = tested on: RXF 393
RPMI-8226 = tested on: RPMI-8226
NCI-H226 = tested on: NCI-H226

Structure (SMILES): c1ccc(N/N=N/c2ccc(-c3nc4ccccc4o3)cc2)nc1
- GI50 (SK-MEL-5): 16.2 µM (inactive)
- GI50 (MOLT-4): 21.6 µM (inactive)
- GI50 (UO-31): 26.6 µM (inactive)
- GI50 (SK-OV-3): 35.4 µM (inactive)
- GI50 (OVCAR-8): 35.8 µM (inactive)
- GI50 (Hs-578T): 77.8 µM (inactive)
- GI50 (TK-10): 37.4 µM (inactive)
- GI50 (ACHN): 52.2 µM (inactive)
- GI50 (MDA-N): 68.7 µM (inactive)
- GI50 (BT-549): 28.8 µM (inactive)
- GI50 (HCT-116): 39.8 µM (inactive)
- GI50 (786-0): 91.8 µM (inactive)
- GI50 (SF-268): 83.6 µM (inactive)
- GI50 (Malme-3M): > 100 µM (inactive)
- GI50 (U-251): 37.9 µM (inactive)
- GI50 (SNB-19): 75.2 µM (inactive)
- GI50 (SN12C): 56.6 µM (inactive)
- GI50 (KM12): 37.8 µM (inactive)
- GI50 (IGROV-1): 28.6 µM (inactive)
- GI50 (K562): 42.9 µM (inactive)
- GI50 (UACC-62): 40.8 µM (inactive)
- GI50 (SK-MEL-2): 41.1 µM (inactive)
- GI50 (COLO 205): 20.6 µM (inactive)
- GI50 (HT-29): 42.8 µM (inactive)
- GI50 (NCI-H23): 34 µM (inactive)
- GI50 (SK-MEL-28): 61.5 µM (inactive)
- GI50 (OVCAR-4): 36 µM (inactive)
- GI50 (M14): 60.7 µM (inactive)
- GI50 (PC-3): 30.1 µM (inactive)
- GI50 (HCT-15): 33.7 µM
- GI50 (LOX IMVI): 37.2 µM (inactive)
- GI50 (SF-539): 55.3 µM (inactive)
- GI50 (MDA-MB-435): 31 µM (inactive)
- GI50 (NCI-H522): 43 µM (inactive)
- GI50 (NCI-H460): 30.5 µM (inactive)
- GI50 (DU-145): 43.6 µM (inactive)
- GI50 (A498): 46.3 µM (inactive)
- GI50 (HOP-92): 54.6 µM (inactive)
- GI50 (SR): 38.5 µM (inactive)
- GI50 (EKVX): 29.9 µM (inactive)
- GI50 (HCC 2998): 20 µM (inactive)
- GI50 (MDA-MB-231): 36.6 µM (inactive)
- GI50 (SNB-75): 20.4 µM (inactive)
- GI50 (NCI/ADR-RES): 35.4 µM (inactive)
- GI50 (T47D): 25.2 µM (inactive)
- GI50 (UACC-257): 29.7 µM (inactive)
- GI50 (HOP-62): 55.8 µM (inactive)
- GI50 (A549): 46.7 µM (inactive)
- GI50 (MCF7): 35.6 µM (inactive)
- GI50 (SW-620): 19.3 µM (inactive)
- GI50 (OVCAR-3): 27.3 µM (inactive)
- GI50 (HL-60): 13.7 µM (inactive)
- GI50 (OVCAR-5): > 100 µM (inactive)

Structure (SMILES): CCOC(=O)/C(=C\c1ccc(C#N)cc1)C(C)=O
- GI50 (SK-MEL-5): 21.5 µM (inactive)
- GI50 (SF-295): 34.5 µM (inactive)
- GI50 (MOLT-4): 25.5 µM (inactive)
- GI50 (UO-31): 13.8 µM (inactive)
- GI50 (SK-OV-3): 40.8 µM (inactive)
- GI50 (OVCAR-8): 36.6 µM (inactive)
- GI50 (Hs-578T): 24.3 µM (inactive)
- GI50 (TK-10): 24 µM (inactive)
- GI50 (ACHN): 23.6 µM (inactive)
- GI50 (MDA-N): 31.1 µM (inactive)
- GI50 (BT-549): 13.5 µM (inactive)
- GI50 (HCT-116): 23.3 µM (inactive)
- GI50 (786-0): 18.4 µM (inactive)
- GI50 (SF-268): 25.2 µM (inactive)
- GI50 (Malme-3M): 15.2 µM (inactive)
- GI50 (U-251): 16.2 µM (inactive)
- GI50 (SNB-19): 45.1 µM (inactive)
- GI50 (SN12C): 25.2 µM (inactive)
- GI50 (KM12): 18.6 µM (inactive)
- GI50 (IGROV-1): 16.8 µM (inactive)
- GI50 (K562): 30.7 µM (inactive)
- GI50 (CCRF-CEM): 13.5 µM (inactive)
- GI50 (UACC-62): 2.23 µM (inactive)
- GI50 (SK-MEL-2): 15.2 µM (inactive)
- GI50 (COLO 205): 31.3 µM (inactive)
- GI50 (HT-29): 33.4 µM (inactive)
- GI50 (NCI-H23): 17.5 µM (inactive)
- GI50 (OVCAR-4): 23.3 µM (inactive)
- GI50 (M14): 30 µM (inactive)
- GI50 (CAKI-1): 22.2 µM (inactive)
- GI50 (RXF 393): 15.3 µM (inactive)
- GI50 (PC-3): 18.5 µM (inactive)
- GI50 (HCT-15): 18.2 µM
- GI50 (LOX IMVI): 19.9 µM (inactive)
- GI50 (SF-539): 29 µM (inactive)
- GI50 (MDA-MB-435): 26.8 µM (inactive)
- GI50 (NCI-H522): 11.5 µM (inactive)
- GI50 (NCI-H460): 28.8 µM (inactive)
- GI50 (DU-145): 18.2 µM (inactive)
- GI50 (A498): 13.3 µM (inactive)
- GI50 (HOP-92): 17.4 µM (inactive)
- GI50 (RPMI-8226): 22 µM (inactive)
- GI50 (EKVX): 49.7 µM (inactive)
- GI50 (HCC 2998): 5.92 µM (inactive)
- GI50 (MDA-MB-231): 15.6 µM (inactive)
- GI50 (SNB-75): 14.6 µM (inactive)
- GI50 (NCI/ADR-RES): 28.1 µM (inactive)
- GI50 (T47D): 21.4 µM (inactive)
- GI50 (UACC-257): 18.6 µM (inactive)
- GI50 (HOP-62): 36.8 µM (inactive)
- GI50 (A549): 60.8 µM (inactive)
- GI50 (MCF7): 19.9 µM (inactive)
- GI50 (SW-620): 21.2 µM (inactive)
- GI50 (OVCAR-3): 36.6 µM (inactive)
- GI50 (HL-60): 34 µM (inactive)
- GI50 (OVCAR-5): 30.8 µM (inactive)
- GI50 (NCI-H226): 35.1 µM (inactive)
